Experimental data taken from US10793514B2, “Glutamine transport inhibitors and methods for treating cancer” (Vanderbilt University, priority 2016, dated 2020).

Assays:
HCC1806 cells [1] = assay: LC3B immunofluorescence; assay type: cell-based, human; details: 25 μM, 48 hrs
Experimental: Following treatment, cells were fixed with 70% methanol for 5-10 min. LC3B was visualized with 1:100 primary antibody (anti LC3B, Cell signaling 2775) at 37° C. for 45 min followed by application of 1:600 secondary antibody (Rhodamine Red, Invitrogen R6394) at 37° C. for 30 min and DAPI for 4 min. Images were acquired with a fluorescence microscope at visualized at 40× magnification.

HEK-293 cells = assay: 3H-labeled amino acid uptake selectivity panel; assay type: cell-based, human; details: 3H-leucine, HEK293
Experimental: Live-cell amino acid uptake assays using HEK293 cells were carried out in 96-well plates (CulturPlate-96, Perkin Elmer). 96-well plates were coated with poly-D-lysine prior to the assay. Cells were plated at a density of 35,000 cells per well 24 h prior to carrying out the assay. Each set of conditions was replicated at least three times, technically and biologically. […] For ASCT2-mediated ^3H-glutamine uptake assays, 5 mM of the system-L inhibitor 2-amino-2-norbornanecarboxylic acid (BCH) was added and the assay buffer was adjusted to pH 6.0. For selectivity studies, no BCH was added and the assay was conducted at pH 7.4. Following the incubation period, the ^3H-glutamine/inhibitor was removed and the cells were washed three times with assay buffer. The cells were then lysed by the addition of 50 μL of 1 M NaOH. For reading, 150 μL of scintillation fluid (Microscint 40, Perkin Elmer) was added and the plates were counted on a scintillation counter (Topcount, Perkin Elmer). Fifty percent inhibitory concentrations (IC50) were calculated using GraphPad Prism version 6 for Mac OS X, GraphPad Software, San Diego Calif. USA, www.graphpad.com. Error is reported as standard deviation (SD).

[2] = system: patient-derived xenograft (PDX) tumor A-008; assay: Patient-derived xenograft chronic exposure study; assay type: in vivo, mouse; details: 75 mg/kg daily, 31 days; vs vehicle
Experimental: (§1) For in vivo studies, cell-line xenograft tumors were propagated in 6-week old, female athymic nude mice from immortalized cell lines. For HCC-1806 (10×10^6 cells), HCT-116 (5×10^6), and HT29 (10×10^6) cells were injected. Palpable tumors were typically visible within 2-3 weeks. For imaging studies (HCC-1806), tumors were propagated to approximately 500 mm^3. For treatment studies (HCT-116, HT29) tumors were propagated to approximately 200 mm^3 prior to therapy and were randomly assigned into treated and untreated cohorts. For generating the PDX, primary tumor tissue was obtained form a patient at Vanderbilt University Medical Center under an IRB approved protocol. The tumor tissue was genotyped within the VANTAGE core facility. Xenograft was generated as previously described 41. Briefly, tumor tissues were sectioned into approximately 125 cubic millimeter pieces then implanted subcutaneously without further manipulation. […] Tumor volumes were measured manually using calipers every third day and quantified using the formula V=W·L·(H/2).

[3] = V-9302 concentration in whole blood with time; assay type: in vivo, mouse; details: single dose 75 mg/kg, healthy mice
Experimental: Liquid chromatography-tandem mass spectroscopy (LC-MS/MS) analyses were performed via reverse phase chromatography using a Shimadzu Nexera X2 UPLC (Columbia, Md.) coupled with a QTrap® 5500 (Sciex, Framinghman, MA, USA). […] Blank samples were made using fresh whole blood applied to Mitra® Microsamplers and allowed to dry for at least 24 h. All data were collected using Sciex Analyst 1.6.2 software and analyzed with MultiQuant 3.0 software. Error is reported as standard deviation (SD).

HCC1806 cells [4] = assay: Immunoblot of pS6 and pERK in HCC1806 cells; assay type: cell-based, human; details: 25 μM, 48 hrs
Experimental: For immunoreactivity studies, tissue samples were diluted to 100 mg/mL in lysis buffer (#7018s, Cell Signaling Technology) and subsequently homogenized, sonicated, and spun at 3.5K RPM for 1 min. Lysate samples were then screened against an array of target-specific capture antibodies using PathScan Intracellular Signaling Array Kits (#7323, Cell Signaling Technology) in accordance with the manufacturer's instructions and developed using HyBlot CL autoradiography film (# e3012, Denville Scientific Inc.). Processed films were digitized using an Epson Perfection V600 Photo scanner and the relative pixel intensities for each blot quantified using the image processing software ImageJ. Complementary western blot studies were performed by loading 20-40 μg of protein into 7.5-12% SDS PAGE gels, […]. Membranes were blocked overnight at 4° C. in trisbuffered saline 0.1% Tween-20 (TBST) containing 5% w/v nonfat dry milk powder and subsequently incubated with antibodies to p-ERK 1/2 Thr202/Tyr204 (Cell Signaling, 4370), pS6 (Cell Signaling, #4858) LC3B, (anti LC3B, Cell signaling 2775), or b-tubulin (Novus Biologicals, NB600-936); Membrane chemiluminescence was imaged on a Xenogen IVIS 200 system.

ASCT1 (SLC1A4) = ASCT1 (SLC1A4) (Mus musculus (Mouse), UniProt O35874); assay: Drug Affinity Responsive Target Stability (DARTS) assay, ASCT1; assay type: binding; details: thermolysin
Experimental: DARTS was carried out as previously described^15 using T-REx-293 cells with tetracycline-inducible expression of ASCT2 or lysate from 115 mg of homogenized mouse brain for ASCT1. […] Lysates were then incubated at room temperature with the protease Thermolysin (1:100 and 1:200 total enzyme to total substrate) for 30 min. ASCT2 was measured by immunoblotting (ASCT2 antibody: Millipore ABN73; ASCT1 antibody: Cell Signaling 8442).

ASCT2 = ASCT2 (Homo sapiens (Human), UniProt Q15758); assay: Drug Affinity Responsive Target Stability (DARTS) assay, ASCT2; details: tetracycline-inducible ASCT2 HEK293 cells; 50, 100, 200 μM
[5] = system: HCT-116 (KRAS G13D) cell-line xenografts; assay: HCT-116 xenograft chronic exposure study; assay type: in vivo, mouse; details: 75 mg/kg per day, 21 days
Experimental: Tissues were sectioned (5 μm thickness) and stained for pS6 (Cell Signaling, #4858) and caspase 3 (Cell Signaling #9661). Tissue slides were imaged at 20× magnification.
as §1

ASCT2, sequence (Q15758 whole entry): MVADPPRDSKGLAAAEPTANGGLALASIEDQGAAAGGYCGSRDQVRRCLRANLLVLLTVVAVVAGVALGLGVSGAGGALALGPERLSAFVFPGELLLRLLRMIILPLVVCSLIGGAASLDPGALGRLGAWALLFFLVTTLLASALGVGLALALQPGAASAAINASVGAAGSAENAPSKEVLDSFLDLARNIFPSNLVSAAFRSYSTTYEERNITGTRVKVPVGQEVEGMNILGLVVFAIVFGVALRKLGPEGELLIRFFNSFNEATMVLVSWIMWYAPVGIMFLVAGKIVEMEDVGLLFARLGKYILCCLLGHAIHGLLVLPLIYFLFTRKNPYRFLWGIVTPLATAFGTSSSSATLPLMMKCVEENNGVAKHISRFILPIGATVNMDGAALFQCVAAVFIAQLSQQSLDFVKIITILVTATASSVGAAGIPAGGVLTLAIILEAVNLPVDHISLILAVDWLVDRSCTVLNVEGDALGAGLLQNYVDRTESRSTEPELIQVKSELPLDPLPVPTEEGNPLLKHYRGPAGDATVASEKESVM
ASCT1 (SLC1A4), sequence (O35874 whole entry): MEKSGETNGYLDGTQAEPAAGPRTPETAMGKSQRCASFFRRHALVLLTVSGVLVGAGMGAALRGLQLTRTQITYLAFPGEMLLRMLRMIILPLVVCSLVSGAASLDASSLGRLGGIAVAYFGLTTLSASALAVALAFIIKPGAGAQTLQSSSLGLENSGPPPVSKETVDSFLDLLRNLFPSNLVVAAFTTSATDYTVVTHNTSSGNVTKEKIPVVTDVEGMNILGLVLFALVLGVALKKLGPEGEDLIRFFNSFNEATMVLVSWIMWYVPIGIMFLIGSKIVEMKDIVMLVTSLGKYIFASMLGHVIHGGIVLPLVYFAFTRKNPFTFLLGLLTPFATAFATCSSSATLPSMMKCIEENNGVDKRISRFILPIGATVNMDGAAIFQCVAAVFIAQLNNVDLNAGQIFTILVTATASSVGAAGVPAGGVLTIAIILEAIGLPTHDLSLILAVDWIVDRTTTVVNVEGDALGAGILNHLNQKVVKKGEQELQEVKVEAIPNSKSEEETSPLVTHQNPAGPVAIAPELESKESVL

- half-life ([3]; mouse, whole blood): ~6 h
- time to steady-state whole blood concentration [3]: 4 h
- stabilization of ASCT1 (ASCT1 (SLC1A4)): not stabilized
Compound: Cc1cccc(COc2ccccc2CN(CCC(N)C(=O)O)Cc2ccccc2OCc2cccc(C)c2)c1 (stereo not drawn) [Compound V-9302]
- LC3B, marker of autophagy (HCC1806 cells [1]): elevated LC3B
- inhibition of leucine uptake (HEK-293 cells): capable of inhibiting the uptake of another ASCT2 substrate, leucine
- tumor volume [2]: reduction in tumor volume
- pERK (HCC1806 cells [4]): modest decrease in pERK
- pS6 (HCC1806 cells [4]): significantly decreased pS6
- protection of ASCT2 from proteolysis (thermolysin) (ASCT2): protected from proteolysis in a V-9302 concentration-dependent manner
- cleaved caspase 3 in tumor tissue ([5]; IHC): elevated levels of cleaved caspase 3
- pS6 in tumor tissue ([5]; IHC): significantly decreased pS6
- tumor growth ([5]; vs vehicle): prevented tumor growth
